Reference: ChEMBL document CHEMBL3217665, “Amino-derivatives of the sesquiterpene lactone class of natural products as prodrugs” (Medchemcomm, 2013)
In brackets after ≈: the same amount, converted by molar mass.

How the values were obtained:
P388 [1] = assay: Antitumor activity against mouse P388 cells allografted in DBA/2 mouse assessed as survival; assay type: functional
[2] = Antiproliferative activity against human Hep2 cells; assay type: functional; conditions: HEp-2, read-out: ED50 (the source's name)
Rattus norvegicus = organism: Rattus norvegicus; assay: Gastroprotective activity in rat assessed as inhibition of HCl/ethyl alcohol-induced lesions; assay type: functional
[3] = Antiinflammatory activity in mouse macrophages assessed as LPS-induced nitric oxide production; assay type: functional, cell-based; conditions: Macrophage
Mus musculus = organism: Mus musculus; assay: Gastroprotective activity in mouse assessed as inhibition of water-immersion-induced lesions; assay type: functional
[4] = Cmax in mouse at 40 mg/kg, po; assay type: ADME, organism-based; set-up: dose 40 mg/kg, route oral; conditions: in vivo
[5] = Half life in dog at 100 mg/kg, po; assay type: ADME, organism-based, Canis lupus familiaris; set-up: dose 100 mg/kg, route oral; conditions: in vivo
[6] = Cmax in dog at 100 mg/kg, po; assay type: ADME, organism-based, Canis lupus familiaris; set-up: dose 100 mg/kg, route oral; conditions: in vivo
[7] = Half life in mouse at 100 mg/kg, po; assay type: ADME, organism-based; set-up: dose 100 mg/kg, route oral; conditions: in vivo
[8] = Cmax in mouse at 100 mg/kg, po; assay type: ADME, organism-based; set-up: dose 100 mg/kg, route oral; conditions: in vivo
[9] = Oral bioavailability in mouse at 100 mg/kg; assay type: ADME, organism-based; conditions: in vivo
[10] = Oral bioavailability in dog at 100 mg/kg; assay type: ADME, organism-based, Canis lupus familiaris; conditions: in vivo
NCI-H520 = assay: Antiproliferative activity against human NCI-H520 cells; assay type: functional, cell-based
A549 = assay: Antiproliferative activity against human A549 cells; assay type: functional, cell-based
P388 [11] = assay: Antiproliferative activity against mouse P388 cells; assay type: functional, cell-based
MCF7 = assay: Antiproliferative activity against human MCF7 cells; assay type: functional, cell-based

Question: For C[C@@H]1C[C@H]2OC(=O)C(CN(C)C)[C@H]2[C@H](O)[C@]2(C)C(=O)C=C[C@@H]12 (stereo partly specified), which Survival (P388 [1]) is on record?
Answer: 13 days

Question: And the EC50 [2]?
Answer: 0.604 µg/mL (≈ 1.96 µM)

Question: For C/C1=C\[C@H]2OC(=O)[C@@H](CN3CCC[C@H]3C(=O)O)[C@@H]2CC/C(C)=C/CC1, which “inhibition (INH)” value (Rattus norvegicus) is on record?
Answer: 59.8%

Question: And the IC50 [3]?
Answer: 2.8 µg/mL (≈ 8.06 µM)

Question: And the “inhibition (INH)” value (Mus musculus)?
Answer: 57%

Question: For C=C1C(=O)O[C@@H]2C[C@@H](C)[C@@H]3C=CC(=O)[C@@]3(C)[C@@H](O)[C@H]12 [HELENALIN], which Survival (P388 [1]) is on record?
Answer: 13.4 days

Question: And the EC50 [2]?
Answer: 0.083 µg/mL (≈ 0.316 µM)

Question: With C=C1C(=O)O[C@@H]2/C=C(\C)CC/C=C(\C)CC[C@@H]12 [COSTUNOLIDE] as the compound, how does the “inhibition (INH)” value (Rattus norvegicus) read?
Answer: 93.2%

Question: What about the IC50 [3] of the same compound?
Answer: 1.2 µg/mL (≈ 5.17 µM)

Question: And the “inhibition (INH)” value (Mus musculus)?
Answer: 14.3%

Question: What does the source list for C/C1=C\CC[C@@]2(C)O[C@@H]2[C@H]2OC(=O)[C@@H](CN(C)C)[C@@H]2CC1?
Answer: Cmax [4]: 0.2 µM; half-life [5]: 1.9 h; Cmax [6]: 61 µM; half-life [7]: 0.63 h; Cmax [8]: 25 µM; bioavailability [9]: 70%; bioavailability [10]: 70%

Question: Which EC50 [2] does the source give for C=C1C(=O)O[C@@H]2C[C@@H](C)[C@@H]3CCC(=O)[C@@]3(C)[C@@H](O)[C@H]12 here?
Answer: 3.83 µg/mL (≈ 14.5 µM)

Question: What does the source list for C=C1CC[C@H]2C(=C)CC[C@H]3C(=C)C(=O)O[C@@H]3[C@@H]12 [DEHYDROCOSTUSLACTONE]?
Answer: inhibition (INH) (Rattus norvegicus): 96.2%; IC50 [3]: 1.2 µg/mL (≈ 5.21 µM); inhibition (INH) (Mus musculus): 19%

Question: Which results are given for C=C1C(=O)O[C@@H]2C[C@@]3(C)CCCC(=C)[C@@H]3C[C@H]12 [ISOALANTOLACTONE]?
Answer: IC50 (NCI-H520): 900 nM; IC50 (A549): 600 nM; IC50 (P388 [11]): 400 nM; IC50 (MCF7): 600 nM

Question: Which results are given for C=C1CC[C@H]2C(=C)CC[C@@H]3[C@H](OC(=O)[C@H]3CN3CCC[C@H]3C(=O)O)[C@@H]12?
Answer: inhibition (INH) (Rattus norvegicus): 87%; IC50 [3]: 2.8 µg/mL (≈ 8.11 µM); inhibition (INH) (Mus musculus): 19%

Question: With C=C1CCC[C@]2(C)C[C@H]3OC(=O)[C@@H](CN(CC)CC)[C@H]3C[C@@H]12 as the compound, how does the IC50 (NCI-H520) read?
Answer: 900 nM

Question: And the IC50 (A549)?
Answer: 800 nM

Question: And the IC50 (P388 [11])?
Answer: 300 nM

Question: And the IC50 (MCF7)?
Answer: 800 nM

Question: With C[C@@H]1C[C@H]2OC(=O)C(CN(C)C)[C@H]2[C@H](O)[C@]2(C)C(=O)CC[C@@H]12 (stereo partly specified) as the compound, how does the EC50 [2] read?
Answer: 6.04 µg/mL (≈ 19.5 µM)

Question: With C=C1CC[C@H]2C(=C)CC[C@@H]3[C@H](OC(=O)[C@H]3CN[C@@H](CC(N)=O)C(=O)O)[C@@H]12 as the compound, how does the “inhibition (INH)” value (Rattus norvegicus) read?
Answer: 68.1%

Question: And the IC50 [3]?
Answer: 16 µg/mL (≈ 44.1 µM)

Question: And the “inhibition (INH)” value (Mus musculus)?
Answer: 4.7%
